According to article PMC4726189, “Blocking protein phosphatase 2A signaling prevents endothelial-to-mesenchymal transition and renal fibrosis: a peptide-based drug therapy” (Scientific Reports, 2016):

Columns and labels:
HUVECs [1] = experiment: TGF-β1-induced EndMT in HUVECs, western blot of VE-cadherin and α-SMA; format: cell-based, human; settings: n ≥ 3
Procedure: (§1) Human umbilical vein endothelial cells (HUVECs, ATCC) were cultured in RPMI-1640 (Gibco) supplemented with 10% fetal bovine serum (FBS, HyClone). When 30% confluent, cells were cultured in serum-free medium before recombinant human TGF-β1 (10 ng/ml; Peprotech) treatment. In some experiments, cells were pretreated with PP2A inhibitor OA (10 nM; Sigma) for 1 h before the addition of TGF-β1. For all cell stimulations, n ≥ 3 independent experiments were performed.
Renal tissues or cells were harvested and centrifuged at 12,000 g to remove cell debris. Protein concentration was measured using a BCA assay kit (Pierce). Eighty micrograms of protein was subjected to SDS-PAGE and transferred onto polyvinylidene difluoride membranes. After transfer, the membranes were blocked and blotted routinely with antibodies against VE-cadherin (BD Biosciences), α-SMA (Abcam), collagen1 (Abcam), PP2Ac (Cell Signaling Technology), occludin (Invitrogen), P-threonine/P-serine (Santa Cruz), nitrotyrosine (Cayman), acetylated-lysine (Cell Signaling Technology), phosphotyrosine (PY-20,Biolgend), PP2A,C subunit, demethylated (Millipore), vimentin (Boster) and CD31 (Proteintech). The immunolabeled proteins were detected by enhanced chemiluminescence (Pierce).The density of the bands was analyzed by Quantity One software (Bio-Rad).

occludin = experiment: Serine/threonine phosphorylation of occludin in immunoprecipitates from TGF-β1-treated HUVECs; format: cell-based, human; settings: n ≥ 3
Procedure: as §1
Cell lysates were centrifuged at 12,000g for 30 min at 4 °C. Approximately 1 mg of each lysate was incubated overnight at 4 °C with 2 μg of anti-occludin, anti-PP2Ac or IgG antibody (a negative control), followed by incubation with Protein A/G-Agarose for 1 hr to capture immunoprecipitates. Bead complexes were washed four times in lysis buffer and then resuspended in 2 × SDS buffer and heated for 10 min at 90 °C. Lysates were electrophoresed, transferred to PVDF filters, and subsequently immunoblotted with antibodies.

PP2A [2] = settings: inhibition of PP2A by okadaic acid; cited from earlier work
From the text: The vast majority of biological processes, including renal fibrosis, are regulated by the balance between the activities of kinases and phosphatases. The significance of kinases has been intensively discussed in kidney disease for decades, however, the roles of phosphatases remain poorly understood. Protein phosphatase 2A (PP2A) is a ubiquitously expressed protein serine/threonine phosphatase that accounts for a large fraction of phosphatase activity in eukaryotic cells. As a heterotrimer, PP2A is composed of three subunits: a catalytic C subunit (PP2Ac), a structural A subunit (PP2Aa) ...

HUVECs [3] = experiment: Cellular uptake of FITC-labeled peptide in HUVECs; format: cell-based, human; settings: fluorescence, n=3
Procedure: To further confirm the hypothesis, PP2Ac mimic peptides (Y127WT,Y130WT,Y265WT, Y267WT,Y284WT) were designed to assess the significance of Tyr127 and other Tyr sites on TGF-β1-driven EndMT. To enhance the penetration of synthetic peptides, a cell-permeable peptide transactivator of transcription (TAT) was used[20][21]. The conjugated peptide TAT-Y127WT was labeled with fluorescein isothiocyanate (FITC) and analyzed for cellular uptake. […] Thus, at the dose of 10 μM, we investigated the anti-EndMT effects of TAT-Y127WT compared with the other four peptides.
(§2) Figure S2. The penetration and cytotoxicity of TAT-Y127WT to HUVECs.
(§3) HUVECs were incubated with various concentrations (0,1,5,10,20,or 50μM) of TAT-Y127WT. Cytotoxicity was measured with the CCK-8 assay. (c)
(§4) Immunofluorescence distribution of TAT-Y127WT and cell morphology. Nuclei were counterstained with DAPI (blue). n=3. Scale bars, 20μm.
(§5) Supplementary Methods: Mass Spectrometry Experiments
Protein Digestion-The protein bands were digested according to an in-gel digestion procedure. The gels were dried in a vacuum centrifuge. Briefly, the in-gel proteins were reduced with dithiothreitol (10 mM DTT/100 mM NH4HCO3 ) for 30 min at 56°C, then alkylated with iodoacetamide (200 mM IAA/100 mM NH4HCO3) in the dark at room temperature for 30 minutes. Gel pieces were briefly rinsed with 100 mM NH4HCO3 and ACN. […]

HUVECs [4] = experiment: Cytotoxicity to HUVECs, CCK-8 assay; format: cell-based, human; settings: approximately 5–10 μM (0, 1, 5, 10, 20 or 50 μM tested), n=3
Procedure: as §2, §3, §4, §5
Protein Digestion-The protein bands were digested according to an in-gel digestion procedure. The gels were dried in a vacuum centrifuge. Briefly, the in-gel proteins were reduced with dithiothreitol (10 mM DTT/100 mM NH4HCO3 ) for 30 min at 56°C, then alkylated with iodoacetamide (200 mM IAA/100 mM NH4HCO3) in the dark at room temperature for 30 minutes. Gel pieces were briefly rinsed with 100 mM NH4HCO3 and ACN. Gel pieces were digested overnight in 12.5 ng/μl trypsin in 25 mM NH4HCO3. The peptides were extracted three times with 60% ACN/0.1% TFA.
The extracts were pooled and dried completely by a vacuum centrifuge.
Identification of the Modification Sites-Experiments were performed on a Q Exactive mass spectrometer that was coupled to Easy nLC (Proxeon Biosystems, now Thermo Fisher Scientific). Approximately 3 μl of the sample was injected for nanoLC-MS/MS analysis. The peptide mixture (1 μg) was loaded onto the C18-reversed phase column
(1 picture or pasted object on this page, not shown here)

[5] = Whole-body and ex vivo organ fluorescence imaging of FITC-labeled peptide in mice; set-up: species or system C57/B mice
Procedure: FITC-loaded peptides were injected through the tail vein or intraperitoneally administered into C57/B mice at a dose of 5 nmol/g of body weight. Whole body fluorescence imaging was performed using an in vivo imaging system (IVIS Spectrum, Caliper, USA) at 0, 0.5, 4 or 24 h post-injection. Subsequently, the mice were sacrificed, and their organs such as the liver, spleen, kidneys, heart, and lung were excised and subjected to ex vivo fluorescence imaging. At the same time, 1 mL of blood was drawn from the retro-orbital sinus after injection at different time points.

Caco-2 Cells = settings: cited from earlier work
From the text: (§6) Therefore, blocking PP2Ac Tyr127 nitration is considered a potential therapeutic approach. […] Peptide-based drugs have garnered much attention because of their high potencies of action and relatively few off-target side-effects[52][53].

PP2A [6] = settings: cited from earlier work
From the text: as §6

[7] = OA 10 nM for 1 h before TGF-β1 10 ng/ml
[8] = FITC-labeled peptide, tail vein injection, ex vivo organ imaging at different time points

Procedure for UUO mice: Mice aged 6–8 weeks were grouped as sham-operated, UUO, UUO +TAT-Y127WT and UUO + TAT-Y127Scr and tail vein injected 1d before surgery. To perform UUO surgery, mice were anesthetized with ketamine hydrochloride (80 mg/kg body weight, intraperitoneally) before surgery and the left kidney was exposed through a flank incision and the left ureter tied off at the level of the lower pole of the kidney with two 4.0 silk ties. All mice were euthanized at the end of the experiments after obstruction, and some kidney tissues were fixed with 4% paraformaldehyde. The remainder was frozen in liquid nitrogen for later use.
Four-micrometer-thick paraffin sections were incubated with primary antibodies overnight at 4 °C and were then incubated with biotinylated goat anti-rabbit IgG or goat anti-mouse IgG for 45 min followed by diaminobenzidine (DAKO) staining. All sections were examined under a light microscope (Olympus BX-50) and digitized with a high-resolution camera. For immunofluorescence studies, after incubated with primary antibody, sections (including serial sections) were incubated with FITC- or CY3-conjugated goat antibody (Jackson ImmunoResearch) for 45 min at 37 °C and then counterstained with DAPI (Vector Laboratories) and analyzed by confocal laser scanning microscopy. 3D reconstructed technology was based on confocal laser-scanning microscopy and analyzed by the software (LAS-AF-Lite 2.6.3). PTC density was analyzed as described with some modifications[56].

Compound: C=C1[C@@H](O)[C@@H]2O[C@]3(CC[C@H](/C=C/[C@@H](C)[C@@H]4CC(C)=C[C@@]5(O[C@H](C[C@@](C)(O)C(=O)O)CC[C@H]5O)O4)O3)CC[C@H]2O[C@@H]1[C@@H](O)C[C@H](C)[C@H]1O[C@@]2(CCCCO2)CC[C@H]1C [OA, okadaic acid, reference compound]
- VE-cadherin expression (HUVECs [1]; [7]): maintained
- α-SMA expression induced by TGF-β1 (HUVECs [1]; [7]): markedly attenuated
- TGF-β1-induced decrease of phosphorylated serine and threonine residues in occludin immunoprecipitates (occludin; pretreatment with OA 10 nM for 1 h): significantly dampened
- effect of PP2A on thrombin- or nocodazole-induced changes in EC cytoskeleton (PP2A [2]): abolished

Compound: ITQVYGFYD [TAT-Y127WT]
- potency to inhibit TGF-β1-induced VE-cadherin decrease and α-SMA increase (HUVECs [1]; peptide 10 μM, TGF-β1, 72 h, compared with the other four peptides): higher potency
- increase of α-SMA (HUVECs [1]; pretreatment with peptide, TGF-β1, 72 h): inhibited
- serine and threonine phosphorylation of occludin (occludin; TGF-β1, 72 h, compared with TAT-Y127Scr treatment): significantly increased
- cell transduction (HUVECs [3]; 10 μM): effectively transduces cells
- cell penetration (HUVECs [3]; FITC-labeled peptide, approximately 5–10 μM): efficient cell penetration
- cytotoxicity to HUVECs (HUVECs [4]): low cytotoxicity
- time to disappearance of the fluorescence signal after injection ([5]; FITC-labeled peptide 5 nmol/g intravenously, whole-body imaging at 0, 0.5, 4, 24 h and blood samples (n = 6)): ≤ 24 h
- fluorescence in heart and lung [5, 8]: small signal
- fluorescence in kidney and liver [5, 8]: strongly detected
- fluorescence in spleen [5, 8]: no signal
- density of peritubular capillaries (UUO mice; 5 nmol/g per day, CD31+ PTC numbers per visual field, n = 8): preserved density
- number of CD31+/α-SMA+ areas in the interstitium (EndMT level) (UUO mice; 5 nmol/g per day, confocal microscopy, n = 8): dramatically decreased
- excessive extracellular matrix (ECM) production, α-SMA and vimentin deposition (UUO mice; 5 nmol/g per day, immunohistochemical staining, n = 8): attenuated
- PP2Ac nitration (UUO mice; administration of the peptide): significantly reduces

Compound: TPDYFL
- acetaldehyde-induced tight junction disruption and barrier dysfunction (Caco-2 Cells): prevented
- PP2A translocation in cardiac myocytes (PP2A [6]): attenuate
